Data on seven compounds can be found in patent publication EP4691482A1, “LONG-ACTING CALCITONIN ANALOG” (Chengdu Aoda Biotechnology Co., Ltd., priority 2023, dated 2024).

The target in this assay is T1, calcitonin receptors (CTR) (Homo sapiens, UniProt P30988).
T1 construct: expressed in transfected cells; host or cells: cAMP Hunter HEK293-CT-R Gs cell line (HEK293, stably transfected)
T1 sequence (P30988 25-474): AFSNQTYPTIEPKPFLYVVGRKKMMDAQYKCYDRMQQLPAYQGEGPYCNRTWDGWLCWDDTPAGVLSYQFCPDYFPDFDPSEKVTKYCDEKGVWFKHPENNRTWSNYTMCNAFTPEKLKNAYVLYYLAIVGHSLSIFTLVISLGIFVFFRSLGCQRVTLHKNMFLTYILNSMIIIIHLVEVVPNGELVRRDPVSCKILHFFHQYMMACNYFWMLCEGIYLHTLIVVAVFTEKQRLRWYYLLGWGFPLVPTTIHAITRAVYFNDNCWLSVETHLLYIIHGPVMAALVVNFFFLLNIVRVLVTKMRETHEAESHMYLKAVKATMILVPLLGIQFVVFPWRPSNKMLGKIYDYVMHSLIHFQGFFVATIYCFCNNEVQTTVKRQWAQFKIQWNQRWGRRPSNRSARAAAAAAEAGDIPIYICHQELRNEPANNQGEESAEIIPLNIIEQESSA
Description: cAMP determination (HTRF, cAMP Dynamic 2 Kit) in cAMP Hunter HEK293-CT-R Gs cell line. As to conditions: for EC50: HEK293 cell line stably expressing CT-R, intracellular cAMP, HTRF. Format: cell-based. An excerpt:
Upon activation by a ligand, Gas-coupled GPCRs can upregulate intracellular cAMP level, and cAMP, as a second messenger, can mediate a series of cellular responses. The cAMP Hunter HEK293-CT-R Gs cell line, which overexpresses Gas-coupled calcitonin receptors (CTR), was used. The binding of calcitonin (or an analog thereof) to the overexpressed CTR upregulates intracellular cAMP level. The amount of intracellular cAMP produced after activation by the calcitonin (or an analog thereof) was detected using a cAMP Dynamic 2 Kit to evaluate the biological activity of the calcitonin (or an analog thereof). HEK293 cell line stably expressing CT-R was used. Stably transfected cells were stimulated with various concentrations of agonists. The time-resolved fluorescence resonance energy signal from the cells after stimulation with different doses was measured using HTRF technology, from which the biological activity of the agonist was subsequently calculated.
In general terms: TR-FRET usually uses a lanthanide donor and a delayed reading to cut background.

In the case of `CC(C)C[C@H](NC(=O)[C@H](CCCCN)NC(=O)CNC(=O)[C@H](CC(C)C)NC(=O)[C@@H](NC(=O)[C@@H]1CSSC[C@H](N)C(=O)N[C@@H](CO)C(=O)N[C@@H](CC(N)=O)C(=O)N[C@@H](CC(C)C)C(=O)N[C@@H](CO)C(=O)N[C@@H]([C@@H](C)O)C(=O)N1)C(C)C)C(=O)N[C@@H](CO)C(=O)N[C@@H](CCC(N)=O)C(=O)N[C@@H](CCC(=O)O)C(=O)N[C@@H](CC(C)C)C(=O)N[C@@H](Cc1c[nH]cn1)C(=O)N[C@@H](CCCCNC(=O)CNC(=O)CC[C@H](NC(=O)CCCCCCCCCCCCCCCCCCC(=O)O)C(=O)O)C(=O)N[C@@H](CC(C)C)C(=O)N[C@@H](CCC(N)=O)C(=O)N[C@H](C(=O)N[C@@H](Cc1ccc(O)cc1)C(=O)N1CCC[C@H]1C(=O)N[C@@H](CCCNC(=N)N)C(=O)N[C@H](C(=O)N[C@@H](CC(N)=O)C(=O)N[C@H](C(=O)NCC(=O)N[C@@H](CO)C(=O)NCC(=O)N[C@H](C(=O)N1CCC[C@H]1C(N)=O)[C@@H](C)O)[C@@H](C)O)[C@@H](C)O)[C@@H](C)O` [Compound 10, Cys-Ser-Asn-Leu-Ser-Thr-Cys-Val-Leu-Gly-Lys-Leu-Ser-Gln-Glu-Leu-His-Lys(Gly-yGlu-eicosanedioic acid)-Leu-Gln-Thr-Tyr-Pro-Arg-Thr-Asn-Thr-Gly-Ser-Gly-Thr-Pro-NH2], the EC50 (in general, the midpoint of the concentration-response curve) stood at 4.9 pM. Same read-out and setting: the result for `CC(C)C[C@H](NC(=O)[C@H](CCCCN)NC(=O)CNC(=O)[C@H](CC(C)C)NC(=O)[C@@H](NC(=O)[C@@H]1CSSC[C@H](N)C(=O)N[C@@H](CO)C(=O)N[C@@H](CC(N)=O)C(=O)N[C@@H](CC(C)C)C(=O)N[C@@H](CO)C(=O)N[C@@H]([C@@H](C)O)C(=O)N1)C(C)C)C(=O)N[C@@H](CO)C(=O)N[C@@H](CCC(N)=O)C(=O)N[C@@H](CCC(=O)O)C(=O)N[C@@H](CC(C)C)C(=O)N[C@@H](Cc1c[nH]cn1)C(=O)N[C@@H](CCCCNC(=O)CNC(=O)CNC(=O)CC[C@H](NC(=O)CCCCCCCCCCCCCCCCCCC(=O)O)C(=O)O)C(=O)N[C@@H](CC(C)C)C(=O)N[C@@H](CCC(N)=O)C(=O)N[C@H](C(=O)N[C@@H](Cc1ccc(O)cc1)C(=O)N1CCC[C@H]1C(=O)N[C@@H](CCCNC(=N)N)C(=O)N[C@H](C(=O)N[C@@H](CC(N)=O)C(=O)N[C@H](C(=O)NCC(=O)N[C@@H](CO)C(=O)NCC(=O)N[C@H](C(=O)N1CCC[C@H]1C(N)=O)[C@@H](C)O)[C@@H](C)O)[C@@H](C)O)[C@@H](C)O` [Compound 11] reads 4.3 pM. On to `CC(C)C[C@H](NC(=O)[C@H](CCCCN)NC(=O)CNC(=O)[C@H](CC(C)C)NC(=O)[C@@H](NC(=O)[C@@H]1CSSC[C@H](N)C(=O)N[C@@H](CO)C(=O)N[C@@H](CC(N)=O)C(=O)N[C@@H](CC(C)C)C(=O)N[C@@H](CO)C(=O)N[C@@H]([C@@H](C)O)C(=O)N1)C(C)C)C(=O)N[C@@H](CO)C(=O)N[C@@H](CCC(N)=O)C(=O)N[C@@H](CCC(=O)O)C(=O)N[C@@H](CC(C)C)C(=O)N[C@@H](Cc1c[nH]cn1)C(=O)N[C@@H](CCCCNC(=O)COCCOCCOCCNC(=O)CC[C@H](NC(=O)CCCCCCCCCCCCCCCCCCC(=O)O)C(=O)O)C(=O)N[C@@H](CC(C)C)C(=O)N[C@@H](CCC(N)=O)C(=O)N[C@H](C(=O)N[C@@H](Cc1ccc(O)cc1)C(=O)N1CCC[C@H]1C(=O)N[C@@H](CCCNC(=N)N)C(=O)N[C@H](C(=O)N[C@@H](CC(N)=O)C(=O)N[C@H](C(=O)NCC(=O)N[C@@H](CO)C(=O)NCC(=O)N[C@H](C(=O)N1CCC[C@H]1C(N)=O)[C@@H](C)O)[C@@H](C)O)[C@@H](C)O)[C@@H](C)O` [Compound 3, Cys-Ser-Asn-Leu-Ser-Thr-Cys-Val-Leu-Gly-Lys-Leu-Ser-Gln-Glu-Leu-His-Lys(PEG3CH2CO-yGlu-eicosanedioic acid)-Leu-Gln-Thr-Tyr-Pro-Arg-Thr-Asn-Thr-Gly-Ser-Gly-Thr-Pro-NH2], for which the “Relative Activity%” value (relative to Salmon Calcitonin = 100.0, HEK293 CT-R cAMP) is on record as 256.8%. `CC(C)C[C@H](NC(=O)[C@H](CCCCN)NC(=O)CNC(=O)[C@H](CC(C)C)NC(=O)[C@@H](NC(=O)[C@@H]1CSSC[C@H](N)C(=O)N[C@@H](CO)C(=O)N[C@@H](CC(N)=O)C(=O)N[C@@H](CC(C)C)C(=O)N[C@@H](CO)C(=O)N[C@@H]([C@@H](C)O)C(=O)N1)C(C)C)C(=O)N[C@@H](CO)C(=O)N[C@@H](CCC(N)=O)C(=O)N[C@@H](CCC(=O)O)C(=O)N[C@@H](CC(C)C)C(=O)N[C@@H](Cc1c[nH]cn1)C(=O)N[C@@H](CCCCNC(=O)COCCOCCNC(=O)COCCOCCNC(=O)CC[C@H](NC(=O)CCCCCCCCCCCCCCCCCCCCC(=O)O)C(=O)O)C(=O)N[C@@H](CC(C)C)C(=O)N[C@@H](CCC(N)=O)C(=O)N[C@H](C(=O)N[C@@H](Cc1ccc(O)cc1)C(=O)N1CCC[C@H]1C(=O)N[C@@H](CCCNC(=N)N)C(=O)N[C@H](C(=O)N[C@@H](CC(N)=O)C(=O)N[C@H](C(=O)NCC(=O)N[C@@H](CO)C(=O)NCC(=O)N[C@H](C(=O)N1CCC[C@H]1C(N)=O)[C@@H](C)O)[C@@H](C)O)[C@@H](C)O)[C@@H](C)O` [Compound 21, Cys-Ser-Asn-Leu-Ser-Thr-Cys-Val-Leu-Gly-Lys-Leu-Ser-Gln-Glu-Leu-His-Lys(AEEA-AEEA-γGlu-docosanedioic acid)-Leu-Gln-Thr-Tyr-Pro -Arg-Thr-Asn-Thr-Gly-Ser-Gly-Thr-Pro-NH2]: the concentration giving a half-maximal response (EC50) is 3.5 pM.

For the compound `CC(C)C[C@H](NC(=O)[C@H](CCCCN)NC(=O)CNC(=O)[C@H](CC(C)C)NC(=O)[C@@H](NC(=O)[C@@H]1CSSC[C@H](N)C(=O)N[C@@H](CO)C(=O)N[C@@H](CC(N)=O)C(=O)N[C@@H](CC(C)C)C(=O)N[C@@H](CO)C(=O)N[C@@H]([C@@H](C)O)C(=O)N1)C(C)C)C(=O)N[C@@H](CO)C(=O)N[C@@H](CCC(N)=O)C(=O)N[C@@H](CCC(=O)O)C(=O)N[C@@H](CC(C)C)C(=O)N[C@@H](Cc1c[nH]cn1)C(=O)N[C@@H](CCCCNC(=O)COCCOCCNC(=O)COCCOCCNC(=O)CC[C@H](NC(=O)CCCCCCCCCCCCCCCCC(=O)O)C(=O)O)C(=O)N[C@@H](CC(C)C)C(=O)N[C@@H](CCC(N)=O)C(=O)N[C@H](C(=O)N[C@@H](Cc1ccc(O)cc1)C(=O)N1CCC[C@H]1C(=O)N[C@@H](CCCNC(=N)N)C(=O)N[C@H](C(=O)N[C@@H](CC(N)=O)C(=O)N[C@H](C(=O)NCC(=O)N[C@@H](CO)C(=O)NCC(=O)N[C@H](C(=O)N1CCC[C@H]1C(N)=O)[C@@H](C)O)[C@@H](C)O)[C@@H](C)O)[C@@H](C)O` [Compound 19, Cys-Ser-Asn-Leu-Ser-Thr-Cys-Val-Leu-Gly-Lys-Leu-Ser-Gln-Glu-Leu-His-Lys(AEEA-AEEA-γGlu-octadecanedioic acid)-Leu-Gln-Thr-Tyr-P ro-Arg-Thr-Asn-Thr-Gly-Ser-Gly-Thr-Pro-NH2], the EC50 is 3.7 pM. Turning to `CC(C)C[C@H](NC(=O)[C@H](CCCCN)NC(=O)CNC(=O)[C@H](CC(C)C)NC(=O)[C@@H](NC(=O)[C@@H]1CSSC[C@H](N)C(=O)N[C@@H](CO)C(=O)N[C@@H](CC(N)=O)C(=O)N[C@@H](CC(C)C)C(=O)N[C@@H](CO)C(=O)N[C@@H]([C@@H](C)O)C(=O)N1)C(C)C)C(=O)N[C@@H](CO)C(=O)N[C@@H](CCC(N)=O)C(=O)N[C@@H](CCC(=O)O)C(=O)N[C@@H](CC(C)C)C(=O)N[C@@H](Cc1c[nH]cn1)C(=O)N[C@@H](CCCCNC(=O)CNC(=O)[C@H](CO)NC(=O)CNC(=O)[C@H](CO)NC(=O)CC[C@H](NC(=O)CCCCCCCCCCCCCCCCCCC(=O)O)C(=O)O)C(=O)N[C@@H](CC(C)C)C(=O)N[C@@H](CCC(N)=O)C(=O)N[C@H](C(=O)N[C@@H](Cc1ccc(O)cc1)C(=O)N1CCC[C@H]1C(=O)N[C@@H](CCCNC(=N)N)C(=O)N[C@H](C(=O)N[C@@H](CC(N)=O)C(=O)N[C@H](C(=O)NCC(=O)N[C@@H](CO)C(=O)NCC(=O)N[C@H](C(=O)N1CCC[C@H]1C(N)=O)[C@@H](C)O)[C@@H](C)O)[C@@H](C)O)[C@@H](C)O` [Compound 7], the concentration for a half-maximal effect (EC50) stood at 4.4 pM.

Consider `CC(C)C[C@H](NC(=O)[C@H](CCCCN)NC(=O)CNC(=O)[C@H](CC(C)C)NC(=O)[C@@H](NC(=O)[C@@H]1CSSC[C@H](N)C(=O)N[C@@H](CO)C(=O)N[C@@H](CC(N)=O)C(=O)N[C@@H](CC(C)C)C(=O)N[C@@H](CO)C(=O)N[C@@H]([C@@H](C)O)C(=O)N1)C(C)C)C(=O)N[C@@H](CO)C(=O)N[C@@H](CCC(N)=O)C(=O)N[C@@H](CCC(=O)O)C(=O)N[C@@H](CC(C)C)C(=O)N[C@@H](Cc1c[nH]cn1)C(=O)N[C@@H](CCCCNC(=O)COCCOCCNC(=O)COCCOCCNC(=O)COCCOCCNC(=O)CC[C@H](NC(=O)CCCCCCCCCCCCCCCCCCC(=O)O)C(=O)O)C(=O)N[C@@H](CC(C)C)C(=O)N[C@@H](CCC(N)=O)C(=O)N[C@H](C(=O)N[C@@H](Cc1ccc(O)cc1)C(=O)N1CCC[C@H]1C(=O)N[C@@H](CCCNC(=N)N)C(=O)N[C@H](C(=O)N[C@@H](CC(N)=O)C(=O)N[C@H](C(=O)NCC(=O)N[C@@H](CO)C(=O)NCC(=O)N[C@H](C(=O)N1CCC[C@H]1C(N)=O)[C@@H](C)O)[C@@H](C)O)[C@@H](C)O)[C@@H](C)O` [Compound 17, Cys-Ser-Asn-Leu-Ser-Thr-Cys-Val-Leu-Gly-Lys-Leu-Ser-Gln-Glu-Leu-His-Lys(AEEA-AEEA-AEEA-γGlu-eicosanedioic acid)-Leu-Gln-Thr-T yr-Pro-Arg-Thr-Asn-Thr-Gly-Ser-Gly-Thr-Pro-NH2], for which the EC50 is 3.1 pM.
